Results from PubChem BioAssay (NCI).
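Interpolation was linear, between the two tested concentrations surrounding the appropriate level; five concentrations were tested over 48 hours in 96-well plates. Definition used: TGI = concentration required for complete inhibition of growth.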

Experiments:
Experiment in all cases: growth of human tumour cells (NCI), 48 h
[1] = test system: SW-620 colon
[2] = test system: HOP-62 NSCLC
[3] = test system: T-47D breast
[4] = test system: RPMI-8226 leukemia
[5] = test system: U251 CNS
[6] = test system: EKVX NSCLC
[7] = test system: OVCAR-3 ovarian

Structure (SMILES)	TGI [1] [µM]	TGI [2] [µM]	TGI [3] [µM]	TGI [4] [µM]	TGI [5] [µM]	TGI [6] [µM]	TGI [7] [µM]
CC(C)[Si](OC1=C(C(=O)N(C)c2cccc(Cl)c2)CCCC1)(C(C)C)C(C)C	29.2	32.4	18.1	42.4	32.9	30.1	27.6
CC1OC(OC2C(O[C@H]3CC[C@@]4(C)C(=CC[C@H]5[C@@H]6C[C@@H]7O[C@]8(CC[C@@H](CO)CO8)[C@@H](C)[C@@H]7[C@@]6(C)CC[C@@H]54)C3)OC(CO)C(O)C2OC2OC(CO)C(O)C(O)C2O)C(O)C(O)C1O (some centres undefined)	3.54	3.21	4.02	3.92	3.22	3.96	–
O=C(NNC(=S)Nc1cccc(Cl)c1)c1cc(-c2ccccc2)nc2ccccc12	31.3	32.1	36.4	75.3	30.4	–	34.3
CCOC(=O)C(=Cc1[nH]c2ccccc2c1-c1c[nH]c2ccccc12)C(=O)OCC	–	28.1	–	23.8	24.3	31.8	21.2
C[C@]12CCC(=O)O[C@H]1CCCCO2	> 100	> 100	> 100	–	> 100	> 100	> 100
CCN(CC)C(=S)N/N=C(/C)c1cccc(/C(C)=N\NC(=S)N(CC)CC)n1	15.2	6.76	16.9	6.17	8.74	12.5	7.44
Cc1cccc(N=NC(=O)NNc2cccc(C)c2C)c1C	> 100	86.7	> 100	74.8	> 100	–	> 100
O=c1cc(-c2ccc(F)cc2)[nH]c2ncc(Cl)cc12	> 100	> 93.2	> 100	62.4	> 83.4	> 100	> 70.5
O=C1/C(=C/c2ccc([N+](=O)[O-])cc2)C(=O)N(c2ccccc2)C1c1ccccc1 (centres undefined)	> 10	> 10	> 10	> 10	> 10	> 10	> 10
O=C(NI1OC(=O)c2ccccc21)c1ccc(Cl)cc1	> 100	> 100	> 100	> 100	> 100	> 100	> 100
O=Cc1c(C(=O)O)[nH]c(=O)[nH]c1=O	> 100	–	–	> 100	> 100	> 100	> 100
CC1=NNC(N)=N/C1=C\C(Sc1ccc(Cl)cc1)c1ccc([N+](=O)[O-])cc1 (centres undefined)	> 100	> 100	> 100	> 100	> 100	> 100	–
CCN(CC)CCNc1nc2ccc([N+](=O)[O-])cc2[n+]([O-])n1	64.1	–	40.6	44.9	77.2	–	> 100
COc1cc(/C=C2\C(=O)N(c3ccccc3)C(c3ccccc3)S2(=O)=O)cc(OC)c1OC (centres undefined)	> 100	> 100	> 100	92.3	> 100	> 100	> 100
Cc1ccc(/C=C2\CCCc3ccccc3C2=O)cc1	65.9	60.6	–	75	52.9	60.9	50.8
CC(=O)OC(/C=C/c1ccccc1)=C(OC(C)C)/C1=C(\c2ccccc2)SCCCSC1=O	> 100	> 100	–	> 100	> 100	> 100	> 100
Cn1c2c(c3ccccc31)CC1c3c(c4ccccc4n3C)CC21 (centres undefined)	> 100	> 100	> 100	> 100	> 100	> 100	> 100
O=C(N/N=C/c1ccccc1)c1c(-c2cccnc2)cnc2ccccc12	> 100	> 100	–	> 100	> 100	> 100	> 100
O=C(N/N=C\c1cccc2c([N+](=O)[O-])cccc12)Nc1ccccc1	35.8	36	20.4	44	24	35.1	29.4
OCC(O)COCn1nncc1Cn1ncc2c(SCc3ccccc3)ncnc21 (centres undefined)	> 100	> 100	> 100	–	> 100	> 100	> 100
CCOc1cn(C2CC(O)C(CO)O2)c(=O)[nH]c1=O (centres undefined)	> 100	> 100	> 100	> 100	> 100	> 100	> 100
Oc1ccc(-c2nc(-c3cccnc3)c(-c3ccc(Cl)cc3)[nH]2)cc1	29.9	30.9	28.6	30	28.5	27.4	28
O=C1CSC(c2cccc(Oc3ccccc3)c2)N1c1ccc(Cl)cc1 (centres undefined)	> 100	> 100	91.9	–	> 100	78.7	> 100
COc1ccc(C2OC[C@H]3O[C@@H](OCc4ccccc4)[C@H](O)[C@@H](O)[C@@H]3O2)cc1 (some centres undefined)	> 100	> 100	–	> 100	> 100	> 100	> 100
COCN(CCC1=CCCCC1)C(=O)OC	> 100	> 100	> 100	> 100	> 100	> 100	> 100
CCOCc1nc2c(OC)cc(-c3nc4ccc(N5CCN(C)CC5)cc4[nH]3)c(OC)c2[nH]1	> 100	62.8	> 100	> 100	> 100	> 100	70.6
COc1ccccc1/C=C1\SC(=S)N(/C=C2\C(=O)Oc3ccccc3C2=O)C1=O	> 100	–	–	–	> 100	60.2	44.6
